Laboratory results published in US9493522B2, “Discovery of candidate biomarkers of in vivo apoptosis by global profiling of caspase cleavage sites” (THE REGENTS OF THE UNIVERSITY OF CALIFORNIA, priority 2008, dated 2016).
Residues, ends and D or L forms follow the SMILES beside them. *: point of attachment. Cbz = O=C(OCc1ccccc1)*; CH2F = FC*

How the values were obtained:
Jurkat cells [1] = test: Immunoblotting of caspase substrate proteolysis during apoptosis; format: cell-based, human
Experimental: Jurkat cells at a density of 1×10^6 cells/ml were treated with etoposide (50 μM) for 0, 2, 4, 8, 12, and 24 hours prior to harvesting. Harvested cells were pelleted at 2,000×g and 25° C. for 5 minutes, washed twice with phosphate buffered saline, and lysed at a concentration of 2×10^7 cells/ml in 1.0% SDS, phosphate buffered saline, 100 μM Z-VAD-FMK, 100 μM E-64, 1 mM PMSF, 1 mM AEBSF, 5 mM EDTA, and 10 mM sodium butyrate. Whole cell lysates were sonicated to shear genomic DNA, normalized to a protein concentration of approximately 2 mg/ml, as determined by BCA assay (Pierce). Cell lysates for each apoptotic timepoint were then analyzed by SDS-PAGE and Western blot. Mouse monoclonal anti-caspase-3 (#9668) and rabbit polyclonal anti-HDAC3 (#2632) antibodies were purchased from Cell Signaling Technology. Mouse monoclonal anti-DFF45 (#611036) antibody was purchased from BD Transduction Laboratories. Goat polyclonal anti-N-Cor (#sc-1611) and rabbit polyclonal anti-HDAC7 (#sc-11412) antibodies were purchased from Santa Cruz Biotechnology. Rabbit polyclonal anti-TBLR1 (#A300-408A), rabbit polyclonal anti-SHARP (#A301-119A), and rabbit polyclonal anti-RBBP7 (#A300-959A) antibodies were purchased from Bethyl Laboratories. Rabbit polyclonal anti-SMRTe (#06-891) antibody was purchased from Millipore. Western blots were imaged using SuperSignal West Femto Substrate (Pierce) with a Fluor Chem SP imager (Alpha Innotech). DNA fragmentation of whole cell DNA was analyzed by agarose gel with the Apoptotic DNA Ladder Kit (Roche).

Jurkat cells [2] = test: Subtiligase N-terminal labeling and LC/MS/MS degradomic analysis of apoptotic Jurkat cells; format: cell-based, human; conditions: Jurkat cells treated with etoposide (50 μM, 12 hours)
Experimental: Normal cells were harvested for experiments at a density of 1×10^6 cells/ml. For apoptotic samples, cells at a density of 1×10^6 cells/ml were treated with etoposide (50 μM) for 12 hours prior to harvesting. Harvested cells (0.1 to 1 billion) were pelleted at 2,000×g and 25° C. for 5 minutes, washed twice with phosphate buffered saline, and lysed at a typical concentration of 2×10^8 cells/ml in 1.0% TRITON X-100 detergent, 100 mM BICINE pH 8.0, 100 μM Z-VAD-FMK, 100 μM E-64, 1 mM PMSF, 1 mM AEBSF, and 5 mM EDTA. […] Clarified supernatant was immediately used in ligation reactions at a protein concentration of approximately 20 mg/ml, as determined by Bradford assay (Bio-Rad).
Subtiligase (1 μM), biotinylated peptide ester (1 mM), and DTT (2 mM) were added to either control or apoptotic cell lysate. Ligation reactions were typically left to proceed at room temperature for 60 minutes. Samples were then denatured by direct addition of solid guanidine hydrochloride to a final concentration of 6 M, reduced by addition of neutralized TCEP (2 mM), heated at 95° C. for 15 minutes, cooled to room temperature, and alkylated by addition of iodoacetamide (6 mM) and incubation at room temperature in the dark for 1 hour. […]

[3] = Jurkat cells, 50 μM etoposide, FIG. 5A

Question: COC(=O)C[C@H](NC(=O)[C@H](C)NC(=O)[C@@H](NC(=O)OCc1ccccc1)C(C)C)C(=O)CF [Z-VAD(OMe)-fmk] (Cbz-Val-Ala-Asp(OMe)-CH2F) was tested. Which “Cleavage of representative substrates HDAC7, Ku80, RCOR2, TBLR1, and UBP36 in presence of caspase inhibitor” value (Jurkat cells [1]; etoposide-treated Jurkat cells, FIG. 5B) did it give?
Answer: Its value is “blocked”.

Question: COc1cc([C@@H]2c3cc4c(cc3[C@@H](O[C@@H]3O[C@@H]5CO[C@@H](C)O[C@H]5[C@H](O)[C@H]3O)[C@H]3COC(=O)[C@H]23)OCO4)cc(OC)c1O [etoposide] was tested. Which “N-termini identified in apoptotic cells derived from P1 aspartate cleavages” value (Jurkat cells [2]; large-scale (2D LC/MS/MS) experiments) did it give?
Answer: The value was 43%.

Question: And the “N-termini identified in apoptotic cells derived from P1 aspartate cleavages” value (Jurkat cells [2]; small-scale (1D LC/MS/MS) experiments)?
Answer: The value was 43%.

Question: What about the “Proteolysis of CCTδ, Ku80, LCOR, and RBBP7 (time course, immunoblot)” value (Jurkat cells [1]; [3]) of the same compound?
Answer: Its value is “partial cleavage”.

Question: What about the “Proteolysis of HDAC6, HDAC7, N-CoR, RCOR2, SHARP, TBLR1, UBP5, and UBP36 (time course, immunoblot)” value (Jurkat cells [1]; [3]) of the same compound?
Answer: Its value is “full cleavage”.
